Results published in patent US20240174690A1, “ANNULATED 2-AMINO-3-CYANO THIOPHENES AND DERIVATIVES FOR THE TREATMENT OF CANCER” (BOEHRINGER INGELHEIM INTERNATIONAL GMBH, priority 2021, published 2024).

Assays:
[1] = tested on: MKN1 cells; assay: MKN1 CTG proliferation assay (120 h) (gastric cancer, wt amplified); assay type: cell-based; settings: Homo sapiens, MKN-1, assay 3, CTG 120 h, read-out: MKN1 (assay 3) IC50
Protocol: MKN1 CTG Proliferation Assay (120 h) (Gastric Cancer, Wt Amplified)
MKN1 cells (JCRB0252) are dispensed into white 384-well plates, flat and white bottom (Corning Costar, PNr.: 3570) at a density of 400 cells per well in 50 μL RPMI 1640 (PAN-Biotech, PNr.: P04-18047)+10% FCS (HyClone, PNr.: SH30084.03) (assay 1) or into white 384-well plates, flat and white bottom (Perkin Elmer, 6007680) at a density of 500 cells per well in 40 μl RPMI (Gibco, PNr.: 21875034)+10% FCS (HyClone, PNr.: SH30084.03) (assay 2) or into black 384-well plates, flat and clear bottom (Greiner, PNr. 781091) at a density of 200 cells per well in 60 μl RPMI-1640 (Gibco #A10491)+10% FCS (HyClone, PNr.: SH30084.03)+PenStrep (Gibco, PNr.15140-122) (assay 3). […] Compounds (10 mM stock in DMSO) are added at logarithmic dose series using the HP Digital Dispenser D300 (Tecan) (assay 1+2) or the ECHO acoustic liquid handler system (Beckman Coulter) (assay 3), including DMSO controls and normalizing for added DMSO. Plates are incubated for 120 h, and cell viability is measured using CellTiter-Glo luminescent cell viability reagent (Promega product code G7570). Viability (stated as percent of control) is defined as relative luminescence units RLU of each well divided by the RLU of cells in DMSO controls. IC50 values are determined from viability measurements by non-linear regression using a four-parameter model.

[2] = tested on: GP2D cells; assay: GP2D proliferation assay (120 h) (colorectal cancer, G12D); assay type: cell-based
Protocol: GP2D Proliferation Assay (120 h) (Colorectal Cancer, G12D)
GP2D cells (ATCC No. CRL-5807) are dispensed into white 384-well plates, flat and white bottom (Perkin Elmer, 6007680) at a density of 500 cells per well in 40 μl DMEM (Sigma, D6429)+1×GlutaMAX (Gibco, 35050038)+10% FCS (fetal calf serum). […] Compounds (10 mM stock in DMSO) are added at logarithmic dose series using the HP Digital Dispenser D300 (Tecan), including DMSO controls and normalizing for added DMSO. For the TO time point measurement, untreated cells are analyzed at the time of compound addition. Plates are incubated for 120 h, and cell viability is measured using CellTiter-Glo luminescent cell viability reagent (Promega product code G7570). Viability (stated as percent of control) is defined as relative luminescence units RLU of each well divided by the RLU of cells in DMSO controls. IC50 values are determined from viability measurements by non-linear regression using a four parameter model.

[3] = biological target: KRAS (WT)::SOS1 (Homo sapiens (Human), UniProt P01116, C118S); assay: KRAS::SOS1 AlphaScreen binding assay, KRAS WT
From the text: This assay can be used to examine the potency with which compounds according to the invention binding to (mutated) KRAS inhibit the protein-protein interaction between SOS1 and (mutated) KRAS e.g., KRAS WT, KRAS G12C, KRAS G12D, KRAS G12V, KRAS G13D. […] Low IC50 values in this assay setting are indicative of strong inhibition of protein-protein interaction between SOS1 and KRAS:
These assays measure the inhibitory effect of compounds on KRAS mutant protein-protein interactions using the Alpha Screen technology by Perkin Elmer.
The following (mutant) enzyme forms of KRAS and interacting proteins are used in these assays at the given concentrations: • KRAS (G12D) 1-169, N-terminal 6His-tag, C-terminal avi-tag (Xtal BioStructures, Inc.); final assay concentration 10 nM and SOS1 564-1049, N-terminal 229 GST-tag, TEV cleavage site (Viva Biotech Ltd); final assay concentration 5 nM; • KRAS (G12C) 1-169, N-terminal 6His-tag for purification, cleaved off, C-terminal avi-tag, biotinylated, mutations: C51S, C80L, C118S (in house); final assay concentration 7.5 nM and SOS1 564-1049, N-terminal 229 GST-tag, TEV cleavage site (Viva Biotech Ltd); final assay concentration 5 nM; • KRAS (G12V) 1-169, N-terminal 6His-tag for purification, cleaved off, C-terminal avi-tag, biotinylated, TEV cleavage site, mutation: C118S, GDP loaded (in house); final assay concentration 10 nM and SOS1 564-1049, N-terminal 229 GST-tag, TEV cleavage site (Viva Biotech Ltd); final assay concentration 10 nM; • KRAS (G13D) 1-169, N-terminal 6His-tag for purification, cleaved off, C-terminal avi-tag, biotinylated, TEV cleavage site, mutation: C118S, GDP loaded (in house); final assay concentration 10 nM and SOS1 564-1049, N-terminal 229 GST-tag, TEV cleavage site (Viva Biotech Ltd); final assay concentration 10 nM; • KRAS (WT) 1-169, N-terminal 6His-tag for purification, cleaved off, C-terminal avi-tag, biotinylated, TEV cleavage site, mutation: C118S, GDP loaded (in house); final assay concentration 10 nM and SOS1 564-1049, N-terminal 229 GST-tag, TEV cleavage site (Viva Biotech Ltd); final assay concentration 10 nM.
Test compounds dissolved in DMSO are dispensed onto assay plates (Proxiplate 384 PLUS, white, PerkinElmer; 6008289) using an Access Labcyte Workstation with the Labcyte Echo 55×. For the chosen highest assay concentration of 100 μM, 150 nL of compound solution are transferred from a 10 mM DMSO compound stock solution. A series of eleven fivefold dilutions per compound are transferred to the assay plate, compound dilutions are tested in duplicates. DMSO are added as backfill to a total volume of 150 nL.
The assays run on a fully automated robotic system in a darkened room below 100 Lux. To 150 nl of compound dilution 10 μl of a mix including KRAS mutant protein, SOS1 (final assay concentrations see above) and GDP nucleotide (Sigma G7127; final assay concentration 10 μM) in assay buffer (1×PBS, 0.1% BSA, 0.05% Tween 20) are added into columns 1-24.
After 30 minutes incubation time 5 μl of Alpha Screen bead mix in assay buffer are added into columns 1-23. Bead mix consists of AlphaLISA Glutathione Acceptor Beads (PerkinElmer, Cat No AL109) and AlphaScreen Streptavidin Donor Beads (PerkinElmer Cat No 6760002) in assay buffer at a final assay concentration of 10 μg/ml each.
Plates are kept at room temperature in a darkened incubator. After an additional 60 minutes incubation time the signal is measured in a PerkinElmer Envision HTS Multilabel Reader using the AlphaScreen specs from PerkinElmer.
Each plate contains up to 16 wells of a negative control depending on the dilution procedure (platewise or serial) (DMSO instead of test compound; with KRAS mutant::SOS1 GDP mix and bead mix; column 23) and 16 wells of a positive control (DMSO instead of test compound; with KRAS mutant::SOS1 GDP mix w/o bead mix; column 24).
As internal control known inhibitors of KRAS mutant::SOS1 interaction can be measured on each compound plate. […]

Chain of KRAS (WT)::SOS1 (P01116 other isoform, or with tags, fused parts or gaps C118S): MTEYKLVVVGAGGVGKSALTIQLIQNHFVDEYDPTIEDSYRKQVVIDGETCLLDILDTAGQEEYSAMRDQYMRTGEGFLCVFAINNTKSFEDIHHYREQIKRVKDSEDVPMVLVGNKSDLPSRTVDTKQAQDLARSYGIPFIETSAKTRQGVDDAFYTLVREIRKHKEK

Compound	IC50 [1] [µM]	IC50 [2] [µM]	IC50 [3] [µM]
C[C@H](Oc1cc(N2CCN(C)C2=O)nc(-c2noc3c2CCC[C@@]32CCCc3sc(N)c(C#N)c32)n1)[C@@H]1CCCN1C [II-75]	0.108	0.111	
C[C@H](Oc1cc(N2CCC[C@H](O)C2)nc(-c2noc3c2CCC[C@@]32CCCc3sc(N)c(C#N)c32)n1)[C@@H]1CCCN1C [II-57]		0.164	
C[C@H](Oc1cc(N2CCNC2=O)nc(-c2noc3c2CCC[C@@]32CCCc3sc(N)c(C#N)c32)n1)[C@@H]1CCCN1C [II-64]		0.022	0.002
C[C@H](Oc1cc(-n2ccc(-c3ccccn3)n2)nc(-c2noc3c2CCC[C@@]32CCCc3sc(N)c(C#N)c32)n1)[C@@H]1CCCN1C [II-119]	0.252		0.006
C[C@H](Oc1cc(-n2cc(-c3cccnc3)nn2)nc(-c2noc3c2CCC[C@@]32CCCc3sc(N)c(C#N)c32)n1)[C@@H]1CCCN1C [II-123]			0.011
C[C@H](Oc1cc(N2Cc3cnn(C)c3C2)nc(-c2noc3c2CCC[C@@]32CCCc3sc(N)c(C#N)c32)n1)[C@@H]1CCCN1C [II-63]	0.578		
C[C@H](Oc1cc(-c2ccn(-c3ccccc3)n2)nc(-c2noc3c2CCC[C@@]32CCCc3sc(N)c(C#N)c32)n1)[C@@H]1CCCN1C [II-89]	0.625		
C[C@H](O)Cn1ccc(-c2cc(O[C@@H](C)[C@@H]3CCCN3C)nc(-c3noc4c3CCC[C@@]43CCCc4sc(N)c(C#N)c43)n2)n1 [II-112]		0.248	
C[C@H](Oc1cc(-n2ccc(Br)n2)nc(-c2noc3c2CCC[C@@]32CCCc3sc(N)c(C#N)c32)n1)[C@@H]1CCCN1C [II-110]			0.007
C[C@H](Oc1cc(N2CCNC3(CC3)C2)nc(-c2noc3c2CCC[C@@]32CCCc3sc(N)c(C#N)c32)n1)[C@@H]1CCCN1C [II-54]		0.001	0.003
C[C@H](Oc1cc(N2CCNC[C@]23CCOC3)nc(-c2noc3c2CCC[C@@]32CCCc3sc(N)c(C#N)c32)n1)[C@@H]1CCCN1C [II-50]		0.003	
CO[C@@H]1C[C@@H]([C@H](C)Oc2cc(-c3ccn(C)n3)nc(-c3noc4c3CCC[C@@]43CCCc4sc(N)c(C#N)c43)n2)N(C)C1 [II-91]	0.247	0.394	
C[C@H](Oc1cc(N2CCc3cccnc32)nc(-c2noc3c2CCC[C@@]32CCCc3sc(N)c(C#N)c32)n1)[C@@H]1CCCN1C [II-90]			0.033
C[C@H](Oc1cc(N2CCCC3(COC3)C2)nc(-c2noc3c2CCC[C@@]32CCCc3sc(N)c(C#N)c32)n1)[C@@H]1CCCN1C [II-72]	0.068		
C[C@H](Oc1cc(-c2ccncc2)nc(-c2noc3c2CCC[C@@]32CCCc3sc(N)c(C#N)c32)n1)[C@@H]1CCCN1C [II-78]	0.533		0.007
C[C@H](Oc1cc(-c2cncnc2)nc(-c2noc3c2CCC[C@@]32CCCc3sc(N)c(C#N)c32)n1)[C@@H]1CCCN1C [II-82]	0.712		0.036

Other lines, results leading:

IC50 [1] [µM]	IC50 [2] [µM]	IC50 [3] [µM]	Compound
	0.585	0.003	C[C@H](Oc1cc(-n2ccnc2)nc(-c2noc3c2CCC[C@@]32CCCc3sc(N)c(C#N)c32)n1)[C@@H]1CCCN1C [II-69]
	0.276		C[C@H](Oc1cc(-c2ccn(C[C@@H](C)O)n2)nc(-c2noc3c2CCC[C@@]32CCCc3sc(N)c(C#N)c32)n1)[C@@H]1CCCN1C [II-117]
0.598			C[C@H](Oc1cc(-c2cccc(CO)c2)nc(-c2noc3c2CCC[C@@]32CCCc3sc(N)c(C#N)c32)n1)[C@@H]1CCCN1C [II-97]
0.358			COC(=O)c1ccc(-c2cc(O[C@@H](C)[C@@H]3CCCN3C)nc(-c3noc4c3CCC[C@@]43CCCc4sc(N)c(C#N)c43)n2)o1 [II-114]
0.234			C[C@H](Oc1cc(-n2ccnc2)nc(-c2noc3c2CCC[C@@]32CCCc3sc(N)c(C#N)c32)n1)[C@@H]1C[C@@H](F)CN1C [II-120]
	0.809	0.005	C[C@H](Oc1cc(-c2ccn(C)n2)nc(-c2noc3c2CCC[C@@]32CCCc3sc(N)c(C#N)c32)n1)[C@@H]1CCCN1C [II-96]
	0.443	0.004	C[C@H](Oc1cc(-c2cnsc2)nc(-c2noc3c2CCC[C@@]32CCCc3sc(N)c(C#N)c32)n1)[C@@H]1CCCN1C [II-111]
0.266		0.005	C[C@H](Oc1cc(-c2ccccn2)nc(-c2noc3c2CCC[C@@]32CCCc3sc(N)c(C#N)c32)n1)[C@@H]1CCCN1C [II-85]
0.387			C[C@H](Oc1cc(-n2cncn2)nc(-c2noc3c2CCC[C@@]32CCCc3sc(N)c(C#N)c32)n1)[C@@H]1CCCN1C [II-70]
0.395	0.006		C[C@H](Oc1cc(N2C[C@H](C)NC3(CC3)C2)nc(-c2onc3c2CCC[C@@]32CCCc3sc(N)c(C#N)c32)n1)[C@@H]1CCCN1C [I-8]
0.66	0.013		C[C@H](Oc1cc(N2C[C@H](C)N[C@@H](C)C2)nc(-c2noc3c2CCC[C@@]32CCCc3sc(N)c(C#N)c32)n1)[C@@H]1CCCN1C [II-56]
0.302			C[C@H](Oc1cc(-c2cn[nH]c2)nc(-c2noc3c2CCC[C@@]32CCCc3sc(N)c(C#N)c32)n1)[C@@H]1CCCN1C [II-87]
		0.01	CNC(=O)c1cn(-c2cc(O[C@@H](C)[C@@H]3CCCN3C)nc(-c3noc4c3CCC[C@@]43CCCc4sc(N)c(C#N)c43)n2)nn1 [II-122]
		0.008	C[C@H](Oc1cc(-c2ccc(N)nc2)nc(-c2noc3c2CCC[C@@]32CCCc3sc(N)c(C#N)c32)n1)[C@@H]1CCCN1C [II-101]
